From patent US20190031650A1, “DNA ALKYLATION AND CROSS-LINKING AGENTS AS COMPOUNDS AND PAYLOADS FOR TARGETED THERAPIES” (YALE UNIVERSITY, priority 2016, published 2019)
Entries after “also recorded” stand apart in the source; their conditions may differ.

Key:
[1] = tested on: linearized pBR322 DNA; assay: DNA alkylation assay (electrophoretic gel assay) with linearized pBR322 DNA; format: biochemical; conditions: 37° C.; for DNA cross-linking: 10 μM
Description: FIG. 17 A. DNA alkylation assay employing linearized pBR322 DNA and the pyridone derivatives 17a or 17b or the unsaturated imines 15a or 15b. Conditions: Linearized pBR322 DNA (20 μM in base pairs (bps)), 15a (100, 10, 1, 0.5, or 0.1 μM), 15b (500, 100, 10, or 1 μM), 17a (500 or 100 μM) or 17b (500 or 100 μM), 37° C., 15 h. Cisplatin (CP; 100 μM) and methyl methanesulfonate (MMS; 500, 100, or 10 μM) were used as positive controls for DNA cross-linking and alkylation, respectively. DNA was visualized using SybrGold. B. DNA alkylation assay employing linearized pBR322 DNA and the unsaturated imine 15a. Conditions: Linearized pBR322 DNA (20 μM in base pairs), 15a (100, 10, 1, 0.1, 0.05, 0.01, or 0.005 μM), 37° C., 15 h.
FIG. 19 A. Structures of the dimer 15c and the gem-dimethyl derivative 15d. B. DNA alkylation assay employing linearized pBR322 DNA and the dimer 15c or the gem-dimethyl derivative 15d. Conditions: Linearized pBR322 DNA (20 μM in base pairs), 15c (10 μM) or 15d (500 or 100 μM), 37° C., 0.1-15 h.
B. DNA alkylation assay employing linearized pBR322 DNA and the unsaturated lactam 19 or the unsaturated imine 15j. Conditions: Linearized pBR322 DNA (20 μM in base pairs), 19 (500, 100, 10, or 1 μM) or 15j (500, 100, 10, or 1 μM), 37° C., 15 h.
Conditions: Linearized pBR322 DNA (20 μM in base pairs), 15h (1, 0.1, or 0.01 μM), 15i (1, 0.1, or 0.01 μM), 15f (1, 0.1, or 0.01 μM), 15g (1, 0.1, or 0.01 μM), 15a (1, 0.1, or 0.01 μM), 15e (1, 0.1, or 0.01 μM), 37° C., 15 h. Methyl methanesulfonate (MMS; 500 or 100 μM) was used as a positive control for DNA alkylation. DNA was visualized using SybrGold.
The activity of 15a, 15b, 17a, and 17b was evaluated in a DNA alkylation assay. Plasmid pBR322 DNA was treated with EcoRI-HF in Cutsmart buffer, and the resulting linearized DNA was incubated with 15a, 15b, 17a, or 17b for 15 h at 37° C. The DNA was then denatured, and the sample was eluted on a 1% neutral agarose gel. DNA was visualized with SybrGold. Cisplatin (CP, 100 μM) and methyl methanesulfonate (MMS, 500, 100, or 10 μM) were used as positive controls for DNA cross-linking and alkylation, respectively. […] The streaking of DNA induced by 15a and 15b parallels that observed with 500 μM of MMS and derives from the presence of shorter DNA strands that are formed by thermal or alkaline denaturation of extensively-alkylated (or in the case of MMS, methylated) DNA.^16 Further evidence for direct alkylation by 15a and 15b is presented in the cross-linking study outlined below.
The […] plasmid pBR322 was propogated in DH5a, isolated by MaxiPrep (Qiagen), and linearized with 5 U/μg EcoRI (NEB). The cut plasmid was column purified and eluted into 10 mM Tris pH 8.0. For each reaction, 130 ng of DNA (20 μM base pairs) was incubated with compound in a 10 μL total volume. Reactions proceeded for 15 h at 37° C., unless otherwise noted. Compounds were diluted in DMSO such that each reaction consisted of a fixed 5% DMSO concentration. Pure MMS (Alfa Aesar) and cisplatin (Biovision) stock solutions were diluted into DMSO immediately prior to use. After incubation, 35 μL of denaturation buffer (6% sucrose, 1% sodium hydroxide, 0.04% bromophenol blue) was added to each reaction. Non-denatured control samples were diluted with 6% sucrose, 0.04% bromophenol blue. Samples were vortexed for 1 min, left at room temperature for 15 min, and then immediately frozen at −80° C. Thawed samples were then loaded onto a 1% agarose Tris-Borate-EDTA (TBE) gel stained with SybrGold (Molecular Probes) and run in TBE buffer for 1 hour at 120V.

[2] = tested on: colibactin peptidase ClbP; conditions: earlier publication (ref. 10); cited from earlier work
[3] = tested on: colibactin peptidase ClbP; assay: LC-HRMS analysis for the in vivo cleavage of synthetic 6 by ClbP; format: cell-based; conditions: 50 μM in E. coli DH10B pClbP culture, 37° C., 24 h
Description: E. coli DH10B pClbP (pPEB018) and the bacteria harboring the empty vector pBAD18 (as previously reported^3) were grown in LB medium supplemented with 100 μg/mL ampicillin. The next morning, 50 μL of these saturated cultures were used to inoculate 2.5 mL of LB medium containing 100 μg/mL ampicillin. Cultures were incubated at 37° C. with shaking at 250 rpm. At an OD600 of 0.4-0.5, cultures were induced with L-arabinose and left to grow for another 30 min. Then, the synthetic 6 substrate (10 mM stock solution in DMSO) or DMSO (vector control) was added to each culture to a final concentration of 50 μM, and incubated at 37° C. for 24 h. At the designated time point, the cultures were extracted with organic solvent and analyzed by LC-HRMS on a Phenomenex C18-A column (150×4.6 mm, 180 Å, 5 μm particle size, Agilent) with a water:acetonitrile (ACN) gradient containing 0.1% formic acid 0.7 mL/min: 1-2 min, 5% ACN; ramp to 98% ACN over 18 min; hold for 5 min at 100% ACN.

[4] = tested on: calf thymus DNA (ctDNA); assay: DNA melting temperature analysis (UV thermal denaturation); format: binding
Description: (§1) Conditions: 2.09 mM NaH2PO4, 7.13 mM Na2HPO4, 928 μM Na2EDTA, 1.01 mM DMSO, pH 7.18. The imine 15a was incubated with ctDNA for 5 min, 1 h, 3 h, 6 h, or 15 h prior to UV thermal denaturation experiments (260 nm, heating rate: 0.5° C./min). [DNA]=32.0 mM bps. The Tm was defined as the temperature at which half of the duplex DNA was unwound, and was determined by the maximum of the first derivative of the thermal denaturation profile.
as §1, with “pyridone 17a” for “imine 15a”, “for” for “for 5 min, 1 h,”, “3” for “3 h, 6 h, or 15”
A DNA melting temperature analysis was conducted to determine if the variance in DNA alkylation activity between the pyridones and the unsaturated imines was due to differences in DNA binding affinity. The hyperchromicity of calf thymus DNA (ctDNA) with increasing temperature was measured at 260 nm in the presence of varying concentrations of 15a or 17a. The Tm was defined as the temperature at which half of the duplex DNA was unwound and was determined by the maximum of the first derivative of the thermal denaturation profile. […] The inventors hypothesized that this was due to an initial binding of 15a to the duplex followed by slow alkylation and degradation. To probe this, they repeated the plasmid alkylation assay using 15a and evaluated the extent of DNA alkylation as a function of time.
UV thermal denaturation samples were prepared by mixing calf thymus DNA [32.0 mM base pairs (bps)] in 2.09 mM NaH2PO4, 7.13 mM Na2HPO4, 928 μM Na2EDTA, 1.01 mM DMSO, pH 7.18 to a final volume of 1.0 mL. Samples were subjected to sonication (6 h) at 25° C. to effect complete dissolution. After incubation with 15a, 15b, 17a, and 17b for 5 min, 1 h, 3 h, 6 h, or 15 h, the UV thermal denaturation spectra of the samples were recorded at 260 nm as a function of temperature (55→80° C., heating rate: 0.5° C./min). First derivative plots were used to determine the denaturation temperature.

[5] = linearized pBR322 DNA (20 μM bp), 15 h, concentrations up to 500 μM
[6] = 2 bp equiv, incubation 5 min to 15 h
[7] = linearized pBR322 DNA (20 μM bp), 15 h

C[C@H]1CCC(C2=C(CC(=O)N(C)Cc3nc(-c4nc(C(=O)NCCN(C)C)cs4)cs3)C3(CC3)NC2=O)=N1 [15j]
DNA alkylation / decomposition of the DNA ([1]; 10 or 1 μM, 15 h (FIG. 21B)): extensive decomposition of the DNA | DNA alkylation potency relative to lactam 19 ([1]; 15 h (FIG. 21B)): significantly more potent

C[C@H]1CCC(C2=C(CC(=O)NCc3nc(-c4nc(C(=O)NCCCN(C)CCCNC(=O)c5csc(-c6csc(CNC(=O)CC7=C(C8=N[C@@H](C)CC8)C(=O)NC78CC8)n6)n5)cs4)cs3)C3(CC3)NC2=O)=N1 [15c]
DNA cross-linking ([1]; 3 h): a clear cross-linked band | DNA cross-linking ([1]; later timepoints (6 or 15 h)): this cross-linked band diminished

C[C@@H](CCC(=O)C1=C(CC(=O)N(C)Cc2nc(-c3nc(C(=O)NCCN(C)C)cs3)cs2)C2(CC2)NC1=O)NC(=O)OC(C)(C)C [compound 19]
DNA alkylation activity ([1]; 500 μM, 15 h (FIG. 21B)): weak DNA alkylation activity

C[C@H]1CCC(C2=C(CC(=O)NCc3nc(-c4nc(C(=O)NCCN(C)C)cs4)cs3)C(C)(C)NC2=O)=N1 [15d]
DNA alkylation activity [1, 5]: did not alkylate DNA

CCCCCCCCCCCCCC(=O)N[C@H](CC(N)=O)C(=O)N[C@@H](C)CCc1c2c(cc(=O)n1Cc1nc(-c3nc(C(=O)O)cs3)cs1)C1(CC1)NC2=O [precolibactin C (6)]
substrate for ClbP [2]: demonstrated to be a substrate for ClbP | cleavage by ClbP [3]: converted to N-myristoyl-D-Asn and its corresponding colibactin by colibactin peptidase ClbP; also recorded: converted to N-myristoyl-D-Asn and its corresponding colibactin in a ClbP-dependent manner

CNC(=O)c1csc(-c2csc(Cn3c(CC[C@H](C)N)c4c(cc3=O)C3(CC3)NC4=O)n2)n1 [17b]
modulation of the melting temperature of calf thymus DNA [4, 6]: no significant modulation | DNA alkylation activity [1, 5]: neither of the pyridone derivatives 17a or 17b displayed measurable activity

C[C@H](N)CCc1c2c(cc(=O)n1Cc1nc(-c3nc(C(=O)NCCN(C)C)cs3)cs1)C1(CC1)NC2=O [17a]
effect of increasing amounts on melting temperature of ctDNA ([4]; incubated with ctDNA for 3 h, 260 nm): dose-dependent increase in the melting temperature | increase in Tm ([4]; ratio of compound to base pairs of 4.0, incubated 3 h): 3.8 °C | increase in Tm ([4]; rligand/bp=2): 2.8 °C | DNA alkylation activity [1, 5]: neither of the pyridone derivatives 17a or 17b displayed measurable activity

CNC(=O)c1csc(-c2csc(CNC(=O)CC3=C(C4=N[C@@H](C)CC4)C(=O)NC34CC4)n2)n1 [15b]
modulation of the melting temperature of calf thymus DNA ([4]; 1 bp equiv, incubation 5 min, 3 h or 15 h): no significant modulation | modulation of the melting temperature of calf thymus DNA [4, 6]: no significant modulation | DNA alkylation [1, 7]: extensively alkylated DNA

C[C@H]1CCC(C2=C(CC(=O)NCc3nc(-c4nc(C(=O)NCCN(C)C)cs4)cs3)C3(CC3)NC2=O)=N1 [15a]
time dependence of the effect on melting temperature / duplex stability ([4]; 1 or 2 bp equiv, incubation 5 min, 1 h, 3 h, 6 h or 15 h): time-dependent effects on duplex stability; also recorded: Time-dependent modulation of the melting temperature | duplex stability ([4]; longer incubations (3-15 h), 1 or 2 bp equiv): duplex stability decreased | increase in Tm ([4]; rligand/bp=2): 1.8 °C | duplex stability ([4]; times less than 1 h, 1 or 2 bp equiv): stabilization of the duplex was observed | extent of DNA damage, dose response ([1]; 5 nM, 15 h (FIG. 17B)): negligible | extent of DNA alkylation as a function of time ([1]; 1 μM, 0.1-15 h (FIG. 18C)): alkylation activity correlated approximately with the decrease in duplex stability | DNA damage, dose response ([1]; 50 or 10 nM, 15 h (FIG. 17B)): small amounts of DNA damage | DNA alkylation, dose response ([1]; concentrations as low as 100 nM, 15 h (FIG. 17B)): extensive DNA alkylation | DNA alkylation [1, 7]: extensively alkylated DNA | DNA alkylation activity relative to 15b ([1]; linearized pBR322 DNA, 15 h (FIG. 17A)): significantly more active than the N-methylamide 15b
